Measurements from PubChem BioAssay AID248 (DTP/NCI, 2004).
“And” between values parts separate entries of the source, which are not always exact repeats. Identical values can stand only once. Toxic doses and inconclusive results are not listed. Rule as the data show it: active = T/C of 150% or more; inactive = T/C below 125%.

Test system: L1210 leukemia ip in BDF1 mice, survival T/C
Assay: NCI In Vivo Anticancer Drug Screen. Data for tumor model L1210 Leukemia (intraperitoneal) in B6D2F1 (BDF1) mice
Conditions: higher = longer survival
Outline: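 In this screen, tumor-bearing mice given compound are compared to those given vehicle, and their survival values are reported as a treated-to-control quotient.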

Measured: T/C

C[C@@H]1C[C@@H]([C@H](O)CC2CC(=O)NC(=O)C2)C(=O)[C@@H](C)C1
inactive: endpoint: mean survival time, dose: 1.5 mg/kg/injection, schedule: Q01DX009 (ip), vehicle: saline with Tween-80 109 % of control | endpoint: mean survival time, dose: 4.31 mg/kg/injection, schedule: Q01DX Z (ip), vehicle: carboxymethylcellulose (CMC) 104 % of control | endpoint: mean survival time, dose: 5.0 mg/kg/injection, schedule: Q01DX010 (ip), vehicle: saline 103 % of control and 107 % of control | endpoint: mean survival time, dose: 7.5 mg/kg/injection, schedule: Q01DX Z (ip), vehicle: carboxymethylcellulose (CMC) 97 % of control and 100 % of control | endpoint: mean survival time, dose: 8.63 mg/kg/injection, schedule: Q01DX Z (ip), vehicle: carboxymethylcellulose (CMC) 102 % of control | endpoint: mean survival time, dose: 10.0 mg/kg/injection, schedule: Q01DX009 (ip), vehicle: acetone 106 % of control | endpoint: mean survival time, dose: 10.0 mg/kg/injection, schedule: Q01DX010 (ip), vehicle: saline 104 % of control and 108 % of control | endpoint: mean survival time, dose: 12.5 mg/kg/injection, schedule: Q01DX Z (ip), vehicle: carboxymethylcellulose (CMC) 108 % of control | endpoint: mean survival time, dose: 15.0 mg/kg/injection, schedule: Q01DX009 (ip), vehicle: Klucel (hydroxypropylcellulose) (HPC) 114 % of control | endpoint: mean survival time, dose: 15.0 mg/kg/injection, schedule: Q01DX009 (ip), vehicle: saline 123 % of control | endpoint: mean survival time, dose: 15.0 mg/kg/injection, schedule: Q01DX Z (ip), vehicle: carboxymethylcellulose (CMC) 108 % of control and 116 % of control | endpoint: mean survival time, dose: 16.0 mg/kg/injection, schedule: Q01DX015 (ip), vehicle: saline 119 % of control | endpoint: mean survival time, dose: 17.25 mg/kg/injection, schedule: Q01DX Z (ip), vehicle: carboxymethylcellulose (CMC) 103 % of control | endpoint: mean survival time, dose: 18.0 mg/kg/injection, schedule: Q01DX015 (ip), vehicle: saline 119 % of control | endpoint: mean survival time, dose: 20.0 mg/kg/injection, schedule: Q01DX009 (ip), vehicle: acetone 119 % of control | endpoint: mean survival time, dose: 20.0 mg/kg/injection, schedule: Q01DX010 (ip), vehicle: saline 110 % of control and 114 % of control | endpoint: mean survival time, dose: 24.3 mg/kg/injection, schedule: Q02DX010 (ip), vehicle: carboxymethylcellulose (CMC) 97 % of control | endpoint: mean survival time, dose: 25.0 mg/kg/injection, schedule: Q01DX Z (ip), vehicle: carboxymethylcellulose (CMC) 106 % of control | endpoint: mean survival time, dose: 25.0 mg/kg/injection, schedule: Q02DX010 (ip), vehicle: other 112 % of control | endpoint: mean survival time, dose: 27.0 mg/kg/injection, schedule: Q01DX015 (ip), vehicle: saline 107 % of control | endpoint: mean survival time, dose: 30.0 mg/kg/injection, schedule: Q01DX009 (ip), vehicle: Klucel (hydroxypropylcellulose) (HPC) 113 % of control | endpoint: mean survival time, dose: 30.0 mg/kg/injection, schedule: Q01DX009 (ip), vehicle: saline with Tween-80 121 % of control | endpoint: mean survival time, dose: 30.0 mg/kg/injection, schedule: Q04DX003 (ip), vehicle: Klucel (hydroxypropylcellulose) (HPC) 108 % of control | endpoint: mean survival time, dose: 32.0 mg/kg/injection, schedule: Q## X004 (ip), vehicle: saline 97 % of control | endpoint: mean survival time, dose: 34.5 mg/kg/injection, schedule: Q01DX Z (ip), vehicle: carboxymethylcellulose (CMC) 121 % of control | endpoint: mean survival time, dose: 36.0 mg/kg/injection, schedule: Q01DX015 (ip), vehicle: saline 115 % of control | endpoint: mean survival time, dose: 37.5 mg/kg/injection, schedule: Q02DX008 (ip), vehicle: saline 108 % of control | endpoint: mean survival time, dose: 38.0 mg/kg/injection, schedule: Q02DX010 (ip), vehicle: other 120 % of control | endpoint: mean survival time, dose: 40.0 mg/kg/injection, schedule: Q01DX010 (ip), vehicle: saline 109 % of control and 116 % of control | endpoint: mean survival time, dose: 42.0 mg/kg/injection, schedule: Q## X032 (ip), vehicle: saline 113 % of control | endpoint: mean survival time, dose: 44.0 mg/kg/injection, schedule: Q01DX001 (ip), vehicle: saline 103 % of control | endpoint: mean survival time, dose: 45.0 mg/kg/injection, schedule: Q01DX Z (ip), vehicle: methylcellulose (MC) 106 % of control | endpoint: mean survival time, dose: 45.0 mg/kg/injection, schedule: Q04DX003 (ip), vehicle: saline 106 % of control | endpoint: mean survival time, dose: 48.0 mg/kg/injection, schedule: Q## X004 (ip), vehicle: saline 96 % of control | endpoint: mean survival time, dose: 50.0 mg/kg/injection, schedule: Q01DX Z (ip), vehicle: carboxymethylcellulose (CMC) 118 % of control | endpoint: mean survival time, dose: 56.0 mg/kg/injection, schedule: Q02DX008 (ip), vehicle: saline 115 % of control | endpoint: mean survival time, dose: 60.0 mg/kg/injection, schedule: Q01DX009 (ip), vehicle: saline 102 % of control | endpoint: mean survival time, dose: 60.0 mg/kg/injection, schedule: Q01DX Z (ip), vehicle: methylcellulose (MC) 106 % of control | endpoint: mean survival time, dose: 60.0 mg/kg/injection, schedule: Q04DX003 (ip), vehicle: Klucel (hydroxypropylcellulose) (HPC) 122 % of control | endpoint: mean survival time, dose: 64.0 mg/kg/injection, schedule: Q## X032 (ip), vehicle: saline 106 % of control and 110 % of control | endpoint: mean survival time, dose: 67.0 mg/kg/injection, schedule: Q01DX001 (ip), vehicle: saline 115 % of control | endpoint: mean survival time, dose: 72.0 mg/kg/injection, schedule: Q## X004 (ip), vehicle: saline 112 % of control | endpoint: mean survival time, dose: 80.0 mg/kg/injection, schedule: Q01DX001 (ip), vehicle: alkali diluted with saline 107 % of control | endpoint: mean survival time, dose: 81.0 mg/kg/injection, schedule: Q01DX015 (ip), vehicle: saline 123 % of control | endpoint: mean survival time, dose: 85.5 mg/kg/injection, schedule: Q02DX010 (ip), vehicle: other 117 % of control | endpoint: mean survival time, dose: 90.0 mg/kg/injection, schedule: Q01DX009 (ip), vehicle: saline 97 % of control | endpoint: mean survival time, dose: 90.0 mg/kg/injection, schedule: Q04DX003 (ip), vehicle: saline 101 % of control | endpoint: mean survival time, dose: 96.0 mg/kg/injection, schedule: Q## X032 (ip), vehicle: saline 106 % of control and 115 % of control | endpoint: mean survival time, dose: 100.0 mg/kg/injection, schedule: Q01DX001 (ip), vehicle: saline 114 % of control | endpoint: mean survival time, dose: 100.0 mg/kg/injection, schedule: Q01DX009 (ip), vehicle: saline with Tween-80 100 % of control | endpoint: mean survival time, dose: 100.0 mg/kg/injection, schedule: Q01DX Z (ip), vehicle: carboxymethylcellulose (CMC) 117 % of control | endpoint: mean survival time, dose: 100.0 mg/kg/injection, schedule: Q04DX003 (ip), vehicle: saline with Tween-80 112 % of control | endpoint: mean survival time, dose: 108.0 mg/kg/injection, schedule: Q## X004 (ip), vehicle: saline 106 % of control | endpoint: mean survival time, dose: 120.0 mg/kg/injection, schedule: Q01DX001 (ip), vehicle: alkali diluted with saline 106 % of control | endpoint: mean survival time, dose: 120.0 mg/kg/injection, schedule: Q01DX009 (ip), vehicle: Klucel (hydroxypropylcellulose) (HPC) 96 % of control | endpoint: mean survival time, dose: 120.0 mg/kg/injection, schedule: Q01DX009 (ip), vehicle: saline with Tween-80 116 % of control | endpoint: mean survival time, dose: 126.0 mg/kg/injection, schedule: Q02DX008 (ip), vehicle: saline 112 % of control | endpoint: mean survival time, dose: 128.25 mg/kg/injection, schedule: Q02DX010 (ip), vehicle: other 74 % of control | endpoint: mean survival time, dose: 144.0 mg/kg/injection, schedule: Q## X032 (ip), vehicle: saline 118 % of control and 123 % of control | endpoint: mean survival time, dose: 162.0 mg/kg/injection, schedule: Q## X004 (ip), vehicle: saline 110 % of control | endpoint: mean survival time, dose: 180.0 mg/kg/injection, schedule: Q01DX001 (ip), vehicle: alkali diluted with saline 103 % of control | endpoint: mean survival time, dose: 180.0 mg/kg/injection, schedule: Q04DX003 (ip), vehicle: saline 97 % of control | endpoint: mean survival time, dose: 189.0 mg/kg/injection, schedule: Q02DX008 (ip), vehicle: saline 114 % of control | endpoint: mean survival time, dose: 200.0 mg/kg/injection, schedule: Q04DX003 (ip), vehicle: saline with Tween-80 103 % of control | endpoint: mean survival time, dose: 216.0 mg/kg/injection, schedule: Q## X032 (ip), vehicle: saline 113 % of control and 117 % of control | endpoint: mean survival time, dose: 240.0 mg/kg/injection, schedule: Q04DX003 (ip), vehicle: Klucel (hydroxypropylcellulose) (HPC) 116 % of control | endpoint: mean survival time, dose: 320.0 mg/kg/injection, schedule: Q## X032 (ip), vehicle: saline 110 % of control | endpoint: median survival time, dose: 25.0 mg/kg/injection, schedule: Q04DX003 (ip), vehicle: alkali diluted with saline 103 % of control | endpoint: median survival time, dose: 50.0 mg/kg/injection, schedule: Q04DX003 (ip), vehicle: alkali diluted with saline 106 % of control | endpoint: median survival time, dose: 100.0 mg/kg/injection, schedule: Q04DX003 (ip), vehicle: alkali diluted with saline 103 % of control | endpoint: median survival time, dose: 200.0 mg/kg/injection, schedule: Q04DX003 (ip), vehicle: alkali diluted with saline 106 % of control
